The test system of this data set is horses. Description: Target Animal Safety (TAS) study / toxicity of formulations in horses. Particulars: in vivo. It is filed as in vivo. The source says:
The drug product vehicle contains about 35-45 wt % alcohol, 46 wt % propylene glycol and 10 wt % WFI. […] Test doses (in horses) with the vehicle confirmed that the dose toxicity was due to the vehicle. More specifically, propylene glycol was believed to be the cause of toxicity.

For the molecule `CNC[C@H](O)[C@@H](O)[C@H](O)[C@H](O)CO` [meglumine, 1-Deoxy-1-methylaminosorbitol], the Toxicity to horses result is “non-toxic”.

These data come from patent US20220387433A1, “TYPE V PHOSPHODIESTERASE INHIBITOR COMPOSITIONS, METHODS OF MAKING THEM AND METHODS OF USING THEM IN PREVENTING OR TREATING ELEVATED PULMONARY VASCULAR PRESSURE OR PULMONARY HEMORRHAGES” (American Regent, Inc., priority 2019, published 2022).
